Columns and labels:
IU1-47 + AZD7762 = compound: CC1=CC(=C(N1C2=CC=C(C=C2)Cl)C)C(=O)CN3CCCCC3 [IU1-47] + NC(=O)Nc1cc(-c2cccc(F)c2)sc1C(=O)N[C@H]1CCCNC1 [AZD7762] (partner 0.2 µM); assay: relative viability (nuclei count vs DMSO), 5 days (fraction); higher = more cells survive
Procedure, shortened: (§1)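 After 5 days of treatment, lung cancer cells in 1536-well plates were fixed and stained in a single step (final 0.05% Triton X-100, 1% formaldehyde, 1 ug/ml Hoechst) and their nuclei counted on 4× images. Treatment had been applied by pin tool the day after seeding as one drug alone or as a fixed anchor-drug dose with five library-drug doses (not always all listed) in √10 steps. Relative viability is the nuclei count of treated wells divided by that of vehicle wells, and values are medians of duplicate plates.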

IU1-47 + Trametinib = compound: CC1=CC(=C(N1C2=CC=C(C=C2)Cl)C)C(=O)CN3CCCCC3 [IU1-47] + CC(=O)Nc1cccc(-n2c(=O)n(C3CC3)c(=O)c3c(Nc4ccc(I)cc4F)n(C)c(=O)c(C)c32)c1 [Trametinib] (partner 0.02 µM); assay: as above
Procedure, shortened: as §1

## NCI-H1993
IU1-47 + AZD7762; first compound 0.08 µM
  relative viability: 0.682
IU1-47 + AZD7762; first compound 0.253 µM
  relative viability: 0.763
IU1-47 + AZD7762; first compound 0.8 µM
  relative viability: 0.769
IU1-47 + AZD7762; first compound 2.53 µM
  relative viability: 0.781
IU1-47 + AZD7762; first compound 8 µM
  relative viability: 0.85
IU1-47 + Trametinib; first compound 0.08 µM
  relative viability: 0.545
IU1-47 + Trametinib; first compound 0.253 µM
  relative viability: 0.613
IU1-47 + Trametinib; first compound 0.8 µM
  relative viability: 0.564
IU1-47 + Trametinib; first compound 2.53 µM
  relative viability: 0.471
IU1-47 + Trametinib; first compound 8 µM
  relative viability: 0.0511

## NCI-H2009
IU1-47 + Trametinib; first compound 0.08 µM
  relative viability: 0.257
IU1-47 + Trametinib; first compound 0.253 µM
  relative viability: 0.3
IU1-47 + Trametinib; first compound 0.8 µM
  relative viability: 0.254
IU1-47 + Trametinib; first compound 2.53 µM
  relative viability: 0.274
IU1-47 + Trametinib; first compound 8 µM
  relative viability: 0.25

## NCI-H2023
IU1-47 + Trametinib; first compound 0.08 µM
  relative viability: 0.563
IU1-47 + Trametinib; first compound 0.253 µM
  relative viability: 0.636
IU1-47 + Trametinib; first compound 0.8 µM
  relative viability: 0.607
IU1-47 + Trametinib; first compound 2.53 µM
  relative viability: 0.608
IU1-47 + Trametinib; first compound 8 µM
  relative viability: 0.557

## NCI-H2085
IU1-47 + AZD7762; first compound 0.08 µM
  relative viability: 0.983
IU1-47 + AZD7762; first compound 0.253 µM
  relative viability: 1.02
IU1-47 + AZD7762; first compound 0.8 µM
  relative viability: 0.997
IU1-47 + AZD7762; first compound 2.53 µM
  relative viability: 0.73
IU1-47 + AZD7762; first compound 8 µM
  relative viability: 1.02
IU1-47 + Trametinib; first compound 0.08 µM
  relative viability: 0.515
IU1-47 + Trametinib; first compound 0.253 µM
  relative viability: 0.471
IU1-47 + Trametinib; first compound 0.8 µM
  relative viability: 0.577
IU1-47 + Trametinib; first compound 2.53 µM
  relative viability: 0.614
IU1-47 + Trametinib; first compound 8 µM
  relative viability: 0.523

## NCI-H2087
IU1-47 + AZD7762; first compound 0.08 µM
  relative viability: 1.45
IU1-47 + AZD7762; first compound 0.253 µM
  relative viability: 1.29
IU1-47 + AZD7762; first compound 0.8 µM
  relative viability: 1.53
IU1-47 + AZD7762; first compound 2.53 µM
  relative viability: 1.31
IU1-47 + AZD7762; first compound 8 µM
  relative viability: 1.24
IU1-47 + Trametinib; first compound 0.08 µM
  relative viability: 0.172
IU1-47 + Trametinib; first compound 0.253 µM
  relative viability: 0.187
IU1-47 + Trametinib; first compound 0.8 µM
  relative viability: 0.203
IU1-47 + Trametinib; first compound 2.53 µM
  relative viability: 0.195
IU1-47 + Trametinib; first compound 8 µM
  relative viability: 0.229

## NCI-H2126
IU1-47 + AZD7762; first compound 0.08 µM
  relative viability: 1.01
IU1-47 + AZD7762; first compound 0.253 µM
  relative viability: 1.08
IU1-47 + AZD7762; first compound 0.8 µM
  relative viability: 1.14
IU1-47 + AZD7762; first compound 2.53 µM
  relative viability: 0.712
IU1-47 + AZD7762; first compound 8 µM
  relative viability: 0.837
IU1-47 + Trametinib; first compound 0.08 µM
  relative viability: 0.642
IU1-47 + Trametinib; first compound 0.253 µM
  relative viability: 0.595
IU1-47 + Trametinib; first compound 0.8 µM
  relative viability: 0.592
IU1-47 + Trametinib; first compound 2.53 µM
  relative viability: 0.498
IU1-47 + Trametinib; first compound 8 µM
  relative viability: 0.534

## NCI-H2170
IU1-47 + AZD7762; first compound 0.08 µM
  relative viability: 1.04
IU1-47 + AZD7762; first compound 0.253 µM
  relative viability: 1.05
IU1-47 + AZD7762; first compound 0.8 µM
  relative viability: 0.985
IU1-47 + AZD7762; first compound 2.53 µM
  relative viability: 0.76
IU1-47 + AZD7762; first compound 8 µM
  relative viability: 0.976
IU1-47 + Trametinib; first compound 0.08 µM
  relative viability: 0.991
IU1-47 + Trametinib; first compound 0.253 µM
  relative viability: 0.913
IU1-47 + Trametinib; first compound 0.8 µM
  relative viability: 1
IU1-47 + Trametinib; first compound 2.53 µM
  relative viability: 0.9
IU1-47 + Trametinib; first compound 8 µM
  relative viability: 0.638

## NCI-H2228
IU1-47 + Trametinib; first compound 0.08 µM
  relative viability: 0.614
IU1-47 + Trametinib; first compound 0.253 µM
  relative viability: 0.415
IU1-47 + Trametinib; first compound 0.8 µM
  relative viability: 0.699
IU1-47 + Trametinib; first compound 2.53 µM
  relative viability: 0.454
IU1-47 + Trametinib; first compound 8 µM
  relative viability: 0.399

## NCI-H2342
IU1-47 + AZD7762; first compound 0.08 µM
  relative viability: 0.526
IU1-47 + AZD7762; first compound 0.253 µM
  relative viability: 0.588
IU1-47 + AZD7762; first compound 0.8 µM
  relative viability: 0.57
IU1-47 + AZD7762; first compound 2.53 µM
  relative viability: 0.507
IU1-47 + AZD7762; first compound 8 µM
  relative viability: 0.486
IU1-47 + Trametinib; first compound 0.08 µM
  relative viability: 0.85
IU1-47 + Trametinib; first compound 0.253 µM
  relative viability: 0.882
IU1-47 + Trametinib; first compound 0.8 µM
  relative viability: 1.05
IU1-47 + Trametinib; first compound 2.53 µM
  relative viability: 0.973
IU1-47 + Trametinib; first compound 8 µM
  relative viability: 0.89

## NCI-H2347
IU1-47 + AZD7762; first compound 0.08 µM
  relative viability: 0.78
IU1-47 + AZD7762; first compound 0.253 µM
  relative viability: 0.845
IU1-47 + AZD7762; first compound 0.8 µM
  relative viability: 0.865
IU1-47 + AZD7762; first compound 2.53 µM
  relative viability: 0.79
IU1-47 + AZD7762; first compound 8 µM
  relative viability: 0.621
IU1-47 + Trametinib; first compound 0.08 µM
  relative viability: 0.258
IU1-47 + Trametinib; first compound 0.253 µM
  relative viability: 0.282
IU1-47 + Trametinib; first compound 0.8 µM
  relative viability: 0.3
IU1-47 + Trametinib; first compound 2.53 µM
  relative viability: 0.304
IU1-47 + Trametinib; first compound 8 µM
  relative viability: 0.302

## NCI-H2405
IU1-47 + AZD7762; first compound 0.08 µM
  relative viability: 0.795
IU1-47 + AZD7762; first compound 0.253 µM
  relative viability: 0.804
IU1-47 + AZD7762; first compound 0.8 µM
  relative viability: 0.853
IU1-47 + AZD7762; first compound 2.53 µM
  relative viability: 0.815
IU1-47 + AZD7762; first compound 8 µM
  relative viability: 0.739
IU1-47 + Trametinib; first compound 0.08 µM
  relative viability: 0.69
IU1-47 + Trametinib; first compound 0.253 µM
  relative viability: 0.702
IU1-47 + Trametinib; first compound 0.8 µM
  relative viability: 0.762
IU1-47 + Trametinib; first compound 2.53 µM
  relative viability: 0.672
IU1-47 + Trametinib; first compound 8 µM
  relative viability: 0.622

## NCI-H3122
IU1-47 + AZD7762; first compound 0.08 µM
  relative viability: 1.08
IU1-47 + AZD7762; first compound 0.253 µM
  relative viability: 1.08
IU1-47 + AZD7762; first compound 0.8 µM
  relative viability: 1.02
IU1-47 + AZD7762; first compound 2.53 µM
  relative viability: 1.02
IU1-47 + AZD7762; first compound 8 µM
  relative viability: 0.88
IU1-47 + Trametinib; first compound 0.08 µM
  relative viability: 0.253
IU1-47 + Trametinib; first compound 0.253 µM
  relative viability: 0.287
IU1-47 + Trametinib; first compound 0.8 µM
  relative viability: 0.268
IU1-47 + Trametinib; first compound 2.53 µM
  relative viability: 0.309
IU1-47 + Trametinib; first compound 8 µM
  relative viability: 0.222

## PC-3 [JPC-3]
IU1-47 + AZD7762; first compound 0.08 µM
  relative viability: 0.72
IU1-47 + AZD7762; first compound 0.253 µM
  relative viability: 0.856
IU1-47 + AZD7762; first compound 0.8 µM
  relative viability: 0.866
IU1-47 + AZD7762; first compound 2.53 µM
  relative viability: 0.828
IU1-47 + AZD7762; first compound 8 µM
  relative viability: 0.741
IU1-47 + Trametinib; first compound 0.08 µM
  relative viability: 0.771
IU1-47 + Trametinib; first compound 0.253 µM
  relative viability: 0.686
IU1-47 + Trametinib; first compound 0.8 µM
  relative viability: 0.73
IU1-47 + Trametinib; first compound 2.53 µM
  relative viability: 0.715
IU1-47 + Trametinib; first compound 8 µM
  relative viability: 0.791

## PC-14
IU1-47 + AZD7762; first compound 0.08 µM
  relative viability: 0.404
IU1-47 + AZD7762; first compound 0.253 µM
  relative viability: 0.345
IU1-47 + AZD7762; first compound 0.8 µM
  relative viability: 0.377
IU1-47 + AZD7762; first compound 2.53 µM
  relative viability: 0.314
IU1-47 + AZD7762; first compound 8 µM
  relative viability: 0.275
IU1-47 + Trametinib; first compound 0.08 µM
  relative viability: 0.95
IU1-47 + Trametinib; first compound 0.253 µM
  relative viability: 0.771
IU1-47 + Trametinib; first compound 0.8 µM
  relative viability: 0.91
IU1-47 + Trametinib; first compound 2.53 µM
  relative viability: 1.14
IU1-47 + Trametinib; first compound 8 µM
  relative viability: 0.723

## RERF-LC-KJ
IU1-47 + AZD7762; first compound 0.08 µM
  relative viability: 1.42
IU1-47 + AZD7762; first compound 0.253 µM
  relative viability: 1.17
IU1-47 + AZD7762; first compound 0.8 µM
  relative viability: 1.18
IU1-47 + AZD7762; first compound 2.53 µM
  relative viability: 0.6
IU1-47 + AZD7762; first compound 8 µM
  relative viability: 0.823
IU1-47 + Trametinib; first compound 0.08 µM
  relative viability: 0.845
IU1-47 + Trametinib; first compound 0.253 µM
  relative viability: 0.883
IU1-47 + Trametinib; first compound 0.8 µM
  relative viability: 0.998
IU1-47 + Trametinib; first compound 2.53 µM
  relative viability: 1.1
IU1-47 + Trametinib; first compound 8 µM
  relative viability: 0.799

## SK-LU-1
IU1-47 + Trametinib; first compound 0.08 µM
  relative viability: 0.52
IU1-47 + Trametinib; first compound 0.253 µM
  relative viability: 0.542
IU1-47 + Trametinib; first compound 0.8 µM
  relative viability: 0.543
IU1-47 + Trametinib; first compound 2.53 µM
  relative viability: 0.491
IU1-47 + Trametinib; first compound 8 µM
  relative viability: 0.395

## SK-MES-1
IU1-47 + Trametinib; first compound 0.08 µM
  relative viability: 0.585
IU1-47 + Trametinib; first compound 0.253 µM
  relative viability: 0.606
IU1-47 + Trametinib; first compound 0.8 µM
  relative viability: 0.567
IU1-47 + Trametinib; first compound 2.53 µM
  relative viability: 0.629
IU1-47 + Trametinib; first compound 8 µM
  relative viability: 0.584

## SW 900
IU1-47 + AZD7762; first compound 0.08 µM
  relative viability: 0.694
IU1-47 + AZD7762; first compound 0.8 µM
  relative viability: 0.695
IU1-47 + AZD7762; first compound 2.53 µM
  relative viability: 0.611
IU1-47 + AZD7762; first compound 8 µM
  relative viability: 0.683
IU1-47 + Trametinib; first compound 0.08 µM
  relative viability: 0.876
IU1-47 + Trametinib; first compound 0.8 µM
  relative viability: 0.783
IU1-47 + Trametinib; first compound 2.53 µM
  relative viability: 0.881
IU1-47 + Trametinib; first compound 8 µM
  relative viability: 0.716

## SW 1573
IU1-47 + Trametinib; first compound 0.08 µM
  relative viability: 0.656
IU1-47 + Trametinib; first compound 0.253 µM
  relative viability: 0.59
IU1-47 + Trametinib; first compound 0.8 µM
  relative viability: 0.683
IU1-47 + Trametinib; first compound 2.53 µM
  relative viability: 0.721
IU1-47 + Trametinib; first compound 8 µM
  relative viability: 0.489

From the supplement of paper PMC10307832
